{
  "source": "ChEMBL document CHEMBL5465560",
  "about": "“Selectivity Literature for EUbOPEN Chemogenomic Library” (2024)",
  "key": {"[1]": {"target": "Serine/threonine-protein kinase MARK2 (Homo sapiens) (UniProt Q7KZI7)", "sequence (Q7KZI7 whole entry)": "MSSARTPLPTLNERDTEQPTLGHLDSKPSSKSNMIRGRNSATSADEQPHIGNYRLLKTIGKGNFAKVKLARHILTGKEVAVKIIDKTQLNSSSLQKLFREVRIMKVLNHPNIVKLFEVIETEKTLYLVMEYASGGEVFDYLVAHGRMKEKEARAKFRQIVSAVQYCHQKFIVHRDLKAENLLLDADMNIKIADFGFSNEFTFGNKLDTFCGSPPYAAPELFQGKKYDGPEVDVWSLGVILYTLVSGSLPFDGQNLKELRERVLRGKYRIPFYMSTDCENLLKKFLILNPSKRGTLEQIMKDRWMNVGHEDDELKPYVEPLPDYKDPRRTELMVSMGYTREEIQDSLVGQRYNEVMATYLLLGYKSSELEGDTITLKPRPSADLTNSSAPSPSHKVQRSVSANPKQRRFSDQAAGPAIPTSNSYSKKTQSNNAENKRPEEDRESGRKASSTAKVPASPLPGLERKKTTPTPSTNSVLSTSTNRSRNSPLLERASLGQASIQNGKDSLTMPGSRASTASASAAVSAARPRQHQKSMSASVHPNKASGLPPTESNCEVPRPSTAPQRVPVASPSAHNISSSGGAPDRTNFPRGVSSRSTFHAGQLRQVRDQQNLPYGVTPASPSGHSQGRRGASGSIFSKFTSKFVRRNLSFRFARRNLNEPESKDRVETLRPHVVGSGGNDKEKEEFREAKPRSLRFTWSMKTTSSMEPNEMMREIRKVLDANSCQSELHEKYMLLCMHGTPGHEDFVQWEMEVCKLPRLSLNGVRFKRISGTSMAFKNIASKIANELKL", "test": "Selectivity interaction (KinomeScan (DiscoverX)) EUB0000229b MARK2", "settings": "at 10 µM"}, "[2]": {"target": "T1, Serine/threonine-protein kinase TNNI3K (Homo sapiens) (UniProt Q59H18)", "T1 sequence (whole entry)": "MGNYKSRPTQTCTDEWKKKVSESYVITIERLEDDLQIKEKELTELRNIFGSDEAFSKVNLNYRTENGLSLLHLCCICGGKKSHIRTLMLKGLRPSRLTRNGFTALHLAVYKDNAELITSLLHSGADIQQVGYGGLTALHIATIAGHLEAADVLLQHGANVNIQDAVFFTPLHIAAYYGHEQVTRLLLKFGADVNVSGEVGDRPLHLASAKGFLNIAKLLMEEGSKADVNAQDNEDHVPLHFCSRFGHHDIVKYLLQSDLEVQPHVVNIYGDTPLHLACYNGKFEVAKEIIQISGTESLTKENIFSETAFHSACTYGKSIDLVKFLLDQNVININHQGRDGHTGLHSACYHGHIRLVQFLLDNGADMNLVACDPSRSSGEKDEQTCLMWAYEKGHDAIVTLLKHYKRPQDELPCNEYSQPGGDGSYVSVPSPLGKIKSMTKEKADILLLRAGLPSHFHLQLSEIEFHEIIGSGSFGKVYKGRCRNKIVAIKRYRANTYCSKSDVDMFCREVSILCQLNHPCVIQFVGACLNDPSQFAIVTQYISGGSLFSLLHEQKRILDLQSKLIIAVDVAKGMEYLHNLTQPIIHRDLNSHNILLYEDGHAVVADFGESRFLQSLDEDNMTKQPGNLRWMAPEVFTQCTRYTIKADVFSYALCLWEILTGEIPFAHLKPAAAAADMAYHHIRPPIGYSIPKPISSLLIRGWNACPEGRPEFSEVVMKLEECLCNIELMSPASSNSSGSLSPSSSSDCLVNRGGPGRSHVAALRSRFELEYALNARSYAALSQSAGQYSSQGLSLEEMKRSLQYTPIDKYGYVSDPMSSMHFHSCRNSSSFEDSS", "test": "Selectivity interaction (KinomeScan (DiscoverX)) EUB0000655a TNNI3K", "settings": "at 10 µM"}, "[3]": {"target": "T2, Myosin light chain kinase (Homo sapiens) (UniProt Q32MK0)", "T2 sequence (whole entry)": "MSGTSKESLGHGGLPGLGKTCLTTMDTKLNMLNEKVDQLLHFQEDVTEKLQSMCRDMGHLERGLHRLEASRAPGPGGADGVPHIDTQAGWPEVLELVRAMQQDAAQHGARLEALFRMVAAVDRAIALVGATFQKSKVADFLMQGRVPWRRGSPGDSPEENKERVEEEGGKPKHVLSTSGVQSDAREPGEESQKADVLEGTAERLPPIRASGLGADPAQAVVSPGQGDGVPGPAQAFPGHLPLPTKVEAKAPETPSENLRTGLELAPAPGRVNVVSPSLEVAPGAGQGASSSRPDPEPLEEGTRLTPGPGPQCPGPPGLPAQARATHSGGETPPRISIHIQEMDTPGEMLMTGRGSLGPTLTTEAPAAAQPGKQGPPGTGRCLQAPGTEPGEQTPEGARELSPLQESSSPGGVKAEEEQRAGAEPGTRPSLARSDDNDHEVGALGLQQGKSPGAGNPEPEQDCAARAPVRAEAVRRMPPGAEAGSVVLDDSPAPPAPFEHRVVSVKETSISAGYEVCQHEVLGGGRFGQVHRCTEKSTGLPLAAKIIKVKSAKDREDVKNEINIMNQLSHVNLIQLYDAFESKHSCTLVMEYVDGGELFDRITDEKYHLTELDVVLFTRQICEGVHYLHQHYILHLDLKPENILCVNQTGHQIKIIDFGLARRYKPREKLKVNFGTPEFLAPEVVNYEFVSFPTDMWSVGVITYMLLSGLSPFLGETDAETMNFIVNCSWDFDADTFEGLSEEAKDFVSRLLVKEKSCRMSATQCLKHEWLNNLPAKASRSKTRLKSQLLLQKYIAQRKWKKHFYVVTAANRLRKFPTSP", "test": "Selectivity interaction (KinomeScan (DiscoverX)) EUB0001079a MYLK3", "settings": "at 1 µM"}, "[4]": {"target": "5'-AMP-activated protein kinase catalytic subunit alpha-2 (Homo sapiens) (UniProt P54646)", "sequence (P54646 whole entry, looked up)": "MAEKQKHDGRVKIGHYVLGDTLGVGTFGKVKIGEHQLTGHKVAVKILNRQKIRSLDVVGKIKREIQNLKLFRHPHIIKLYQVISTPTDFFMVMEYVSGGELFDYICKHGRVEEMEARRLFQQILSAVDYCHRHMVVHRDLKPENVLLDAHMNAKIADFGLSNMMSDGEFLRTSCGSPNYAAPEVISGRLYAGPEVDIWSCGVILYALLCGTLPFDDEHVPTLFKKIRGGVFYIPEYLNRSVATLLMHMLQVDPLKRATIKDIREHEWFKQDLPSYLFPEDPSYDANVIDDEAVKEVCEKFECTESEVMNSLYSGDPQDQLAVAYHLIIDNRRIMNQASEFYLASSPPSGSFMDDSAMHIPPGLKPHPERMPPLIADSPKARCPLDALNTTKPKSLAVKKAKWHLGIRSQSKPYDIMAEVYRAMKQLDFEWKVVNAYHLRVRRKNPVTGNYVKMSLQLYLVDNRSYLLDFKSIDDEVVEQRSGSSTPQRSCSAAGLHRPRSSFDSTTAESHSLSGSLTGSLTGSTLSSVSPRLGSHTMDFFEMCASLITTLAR", "test": "Selectivity interaction (KinomeScan (DiscoverX)) EUB0000311b PRKAA2", "settings": "at 1 µM"}, "[5]": {"target": "Mitogen-activated protein kinase 9 (Homo sapiens, UniProt P45984)", "sequence (P45984 whole entry, looked up)": "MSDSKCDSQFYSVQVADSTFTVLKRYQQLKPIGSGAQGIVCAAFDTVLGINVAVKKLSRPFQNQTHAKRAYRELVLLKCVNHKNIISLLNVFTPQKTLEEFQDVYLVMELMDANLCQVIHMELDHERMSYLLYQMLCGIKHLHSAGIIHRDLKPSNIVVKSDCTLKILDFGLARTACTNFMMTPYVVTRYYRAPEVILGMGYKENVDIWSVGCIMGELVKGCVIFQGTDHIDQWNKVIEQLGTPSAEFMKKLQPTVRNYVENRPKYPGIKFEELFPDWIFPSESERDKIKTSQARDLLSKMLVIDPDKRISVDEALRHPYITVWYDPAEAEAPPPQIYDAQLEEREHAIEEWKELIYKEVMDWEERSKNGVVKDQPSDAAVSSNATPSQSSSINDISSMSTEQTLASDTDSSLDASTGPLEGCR", "test": "Selectivity interaction (ActivX KiNativ screen (kinase selectivity in THP-1 cell lysates)) EUB0000639a MAPK9", "assay_type": "subcellular", "settings": "lysate"}, "[6]": {"target": "Glycogen synthase kinase-3 alpha (Homo sapiens, UniProt P49840)", "sequence (P49840 2-483 limits assumed)": "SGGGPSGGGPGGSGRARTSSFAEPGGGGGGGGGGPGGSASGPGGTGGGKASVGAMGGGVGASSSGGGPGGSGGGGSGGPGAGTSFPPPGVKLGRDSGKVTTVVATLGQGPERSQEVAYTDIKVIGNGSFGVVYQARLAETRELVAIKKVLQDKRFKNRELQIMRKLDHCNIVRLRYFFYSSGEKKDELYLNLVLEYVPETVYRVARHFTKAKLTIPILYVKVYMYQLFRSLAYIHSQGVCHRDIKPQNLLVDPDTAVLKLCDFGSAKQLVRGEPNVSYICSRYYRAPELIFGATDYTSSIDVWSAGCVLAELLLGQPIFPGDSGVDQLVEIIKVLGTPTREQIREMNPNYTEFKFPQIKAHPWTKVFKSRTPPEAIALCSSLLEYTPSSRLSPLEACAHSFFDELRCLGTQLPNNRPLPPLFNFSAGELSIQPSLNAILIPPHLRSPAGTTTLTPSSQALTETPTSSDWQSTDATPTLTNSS", "test": "Selectivity interaction (KinomeScan (DiscoverX)) EUB0000607a GSK3A", "settings": "at 10 µM"}, "[7]": {"target": "T3, Serine/threonine-protein kinase BRSK2 (Homo sapiens) (UniProt Q8IWQ3)", "T3 sequence (whole entry)": "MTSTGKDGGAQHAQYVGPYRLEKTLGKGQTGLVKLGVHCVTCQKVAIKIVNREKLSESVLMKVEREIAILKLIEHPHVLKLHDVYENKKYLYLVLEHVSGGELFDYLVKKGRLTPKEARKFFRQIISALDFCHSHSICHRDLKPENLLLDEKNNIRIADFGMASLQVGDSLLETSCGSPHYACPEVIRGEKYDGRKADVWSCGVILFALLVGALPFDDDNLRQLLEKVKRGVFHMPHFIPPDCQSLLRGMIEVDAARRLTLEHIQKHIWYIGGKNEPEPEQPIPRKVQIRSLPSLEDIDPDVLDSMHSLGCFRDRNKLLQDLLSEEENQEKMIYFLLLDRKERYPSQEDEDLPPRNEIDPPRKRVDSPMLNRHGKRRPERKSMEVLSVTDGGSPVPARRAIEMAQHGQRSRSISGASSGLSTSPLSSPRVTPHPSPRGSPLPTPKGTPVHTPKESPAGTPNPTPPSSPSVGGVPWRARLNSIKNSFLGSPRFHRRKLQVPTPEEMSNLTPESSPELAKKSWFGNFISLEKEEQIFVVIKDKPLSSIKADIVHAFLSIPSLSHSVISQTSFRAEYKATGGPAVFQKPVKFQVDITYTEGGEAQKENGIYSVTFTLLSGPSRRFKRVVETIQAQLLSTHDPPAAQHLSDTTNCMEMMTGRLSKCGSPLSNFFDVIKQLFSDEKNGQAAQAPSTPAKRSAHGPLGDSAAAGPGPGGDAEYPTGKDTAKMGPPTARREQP", "test": "Selectivity interaction (KinomeScan (DiscoverX)) EUB0001049a BRSK2", "settings": "at 1 µM"}, "[8]": {"target": "Tyrosine-protein kinase receptor UFO (Homo sapiens) (UniProt P30530)", "sequence (P30530 whole entry)": "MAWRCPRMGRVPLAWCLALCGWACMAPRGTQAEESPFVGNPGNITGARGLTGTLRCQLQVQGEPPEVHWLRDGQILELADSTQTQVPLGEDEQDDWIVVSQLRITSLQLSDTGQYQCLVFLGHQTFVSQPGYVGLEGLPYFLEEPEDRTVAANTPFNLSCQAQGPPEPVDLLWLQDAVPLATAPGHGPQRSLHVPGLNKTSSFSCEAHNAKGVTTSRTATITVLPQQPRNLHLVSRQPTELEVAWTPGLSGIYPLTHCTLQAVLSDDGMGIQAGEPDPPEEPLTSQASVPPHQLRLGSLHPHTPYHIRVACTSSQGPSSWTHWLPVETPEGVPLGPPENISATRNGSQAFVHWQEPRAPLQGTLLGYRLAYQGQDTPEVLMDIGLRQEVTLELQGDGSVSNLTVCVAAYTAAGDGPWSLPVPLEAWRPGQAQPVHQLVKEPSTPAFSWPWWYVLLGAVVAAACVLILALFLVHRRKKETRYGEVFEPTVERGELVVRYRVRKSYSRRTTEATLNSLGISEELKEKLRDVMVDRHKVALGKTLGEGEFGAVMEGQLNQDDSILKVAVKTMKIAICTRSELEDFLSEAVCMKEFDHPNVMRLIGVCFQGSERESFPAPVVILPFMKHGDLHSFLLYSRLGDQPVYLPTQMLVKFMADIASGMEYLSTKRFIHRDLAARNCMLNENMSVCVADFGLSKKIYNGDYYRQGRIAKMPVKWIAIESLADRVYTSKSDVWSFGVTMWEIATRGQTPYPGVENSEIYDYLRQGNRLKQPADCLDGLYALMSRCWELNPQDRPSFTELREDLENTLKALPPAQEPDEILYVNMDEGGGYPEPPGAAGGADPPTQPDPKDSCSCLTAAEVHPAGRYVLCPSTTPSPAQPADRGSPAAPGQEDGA", "test": "Selectivity interaction (KinomeScan (DiscoverX)) EUB0000595a AXL", "settings": "at 10 µM"}, "[9]": {"target": "Serine/threonine-protein kinase NIM1 (Homo sapiens, UniProt Q8IY84)", "sequence (Q8IY84 whole entry)": "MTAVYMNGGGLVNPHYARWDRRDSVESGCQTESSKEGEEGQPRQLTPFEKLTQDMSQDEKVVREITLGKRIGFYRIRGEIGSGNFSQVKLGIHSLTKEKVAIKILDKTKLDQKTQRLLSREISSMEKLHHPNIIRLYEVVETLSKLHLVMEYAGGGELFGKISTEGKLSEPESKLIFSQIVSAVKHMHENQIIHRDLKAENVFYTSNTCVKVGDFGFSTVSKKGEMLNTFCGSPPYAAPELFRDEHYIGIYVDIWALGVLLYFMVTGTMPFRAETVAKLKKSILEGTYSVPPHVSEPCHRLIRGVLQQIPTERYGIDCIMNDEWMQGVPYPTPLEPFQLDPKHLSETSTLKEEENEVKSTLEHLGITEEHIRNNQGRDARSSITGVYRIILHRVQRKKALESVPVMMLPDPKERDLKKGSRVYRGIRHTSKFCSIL", "test": "Selectivity interaction (KinomeScan (DiscoverX)) EUB0000045b NIM1K"}},
  "data": [
    {"smiles": "COc1cc(N(C)c2ccnc3ccc(C(F)(F)F)cc23)cc(OC)c1OC", "values": [
      {"measurement": "% binding", "setting": "[1]", "result": 85, "unit": "%"}
    ]},
    {"smiles": "CN(C)CCOc1ccc(-c2nc(-c3ccncc3)c(-c3ccc4c(c3)CC/C4=N\\O)[nH]2)cc1", "values": [
      {"measurement": "% of control", "setting": "[2]", "result": 76, "unit": "%"}
    ]},
    {"smiles": "Nc1cnc(N2CCc3cc(S(=O)(=O)Nc4c(F)cc(Cl)cc4F)cc(N4CCCC4=O)c32)nc1", "note": "[TP-020n]", "values": [
      {"measurement": "% of control", "setting": "[3]", "result": 100, "unit": "%"}
    ]},
    {"smiles": "CCc1ccccc1C(=O)Nc1n[nH]c2c(C)c(F)c(C3C(C#N)=C(C)N(C)C(C)=C3C#N)cc12", "note": "[BAY-3827]", "values": [
      {"measurement": "% of control", "setting": "[4]", "result": 0, "unit": "%"}
    ]},
    {"smiles": "CC[C@@H]1[C@H](F)C(=O)N[C@@H]1COc1nccc2cc(C(N)=O)c(OC)cc12", "note": "[ZIMLOVISERTIB]", "values": [
      {"measurement": "% of inhibition", "setting": "[5]; at 0.01 µM", "result": 13.3, "unit": "%"},
      {"measurement": "% of inhibition", "setting": "[5]; at 0.04 µM", "result": -1.4, "unit": "%"},
      {"measurement": "% of inhibition", "setting": "[5]; at 0.2 µM", "result": 1.6, "unit": "%"},
      {"measurement": "% of inhibition", "setting": "[5]; at 1 µM", "result": 27.7, "unit": "%"},
      {"measurement": "% of inhibition", "setting": "[5]; at 5 µM", "result": 57.5, "unit": "%"}
    ]},
    {"smiles": "CNC(=O)Nc1ccc(-c2nc(N3CC4CCC(C3)O4)c3cnn(C4CCC5(CC4)OCCO5)c3n2)cc1", "values": [
      {"measurement": "% of control", "setting": "[6]", "result": 82, "unit": "%"}
    ]},
    {"smiles": "COc1cc(Nc2nc(C)cc(-c3cnn4nc(OC)ccc34)n2)cc(C(F)(F)F)c1", "values": [
      {"measurement": "% of control", "setting": "[7]", "result": 94, "unit": "%"}
    ]},
    {"smiles": "COCC(=O)NC/C=C/c1ccc2ncnc(Nc3ccc(Oc4ccc(C)nc4)c(C)c3)c2c1", "note": "[CP-724714]", "values": [
      {"measurement": "% of control", "setting": "[8]", "result": 68, "unit": "%"}
    ]},
    {"smiles": "C=CC(=O)Nc1cc(-n2c(=O)ccc3cnc4ccc(-c5ccc(NS(C)(=O)=O)cc5)cc4c32)ccc1C", "values": [
      {"measurement": "% of control", "setting": "[9]; at 1 µM", "result": 100, "unit": "%"},
      {"measurement": "% of control", "setting": "[9]; at 10 µM", "result": 100, "unit": "%"}
    ]}
  ]
}
